According to ChEMBL document CHEMBL3885861, “Open TG-GATES”:

Species on record: Rattus norvegicus
Test: Open TG-GATES - Regimen: Daily Repeat
Format: toxicity, organism-based, Sprague-Dawley
Design: regimen Daily Repeat, gender Male, age 6 weeks
Conditions: in vivo, po, 50 mg/kg, route gavage, dose level Middle; for APTT / Bas / Eos / Fbg / Hb / Ht / Lym / MCH / MCHC / MCV / Mono / Neu / PT / Plat / RBC / Ret / WBC: tissue Blood; for KIDNEY_L / KIDNEY_R / KIDNEY_TOTAL: tissue Kidney; for LIVER: tissue Liver; for A/G / ALP / ALT / AST / BUN / CRE / Ca / Cl / DBIL / GLC / IP / K / LDH / Na / PL / RALB / TBIL / TC / TG / TP / gamma-GTP: tissue Plasma

Structure (SMILES): CC(C)C(=O)Nc1ccc([N+](=O)[O-])c(C(F)(F)F)c1 [FLUTAMIDE]
- TERMINAL_BW (72 h, time 3 day): 215.7 g
- APTT (72 h, time 3 day): 18.3 s
- Bas (72 h, time 3 day): 0%
- Eos (72 h, time 3 day): 1.2%
- Fbg (72 h, time 3 day): 217 mg/dL
- Hb (72 h, time 3 day): 14.3 g/dL
- Ht (72 h, time 3 day): 43.4%
- Lym (72 h, time 3 day): 78%
- MCH (72 h, time 3 day): 20.9 pg
- MCHC (72 h, time 3 day): 32.9%
- MCV (72 h, time 3 day): 63.5 fL
- Mono (72 h, time 3 day): 2.6%
- Neu (72 h, time 3 day): 17.4%
- PT (72 h, time 3 day): 12.3 s
- Plat (72 h, time 3 day): 115.2 x10_4/uL
- RBC (72 h, time 3 day): 685 x10_4/ul
- Ret (72 h, time 3 day): 4.1%
- WBC (72 h, time 3 day): 77.6 x10_2/uL
- KIDNEY_L (72 h, time 3 day): 0.9 g
- KIDNEY_R (72 h, time 3 day): 1 g
- KIDNEY_TOTAL (72 h, time 3 day): 1.9 g
- LIVER (72 h, time 3 day): 11.1 g
- A/G (72 h, time 3 day): 1.7
- ALP (72 h, time 3 day): 1001 IU/L
- ALT (72 h, time 3 day): 38 IU/L
- AST (72 h, time 3 day): 66.2 IU/L
- BUN (72 h, time 3 day): 14.6 mg/dL
- CRE (72 h, time 3 day): 0.4 mg/dL
- Ca (72 h, time 3 day): 10.7 mg/dL
- Cl (72 h, time 3 day): 105 meq/L
- DBIL (72 h, time 3 day): 0.098 mg/dL
- GLC (72 h, time 3 day): 210.8 mg/dL
- IP (72 h, time 3 day): 6.9 mg/dL
- K (72 h, time 3 day): 3.6 meq/L
- LDH (72 h, time 3 day): 175.8 IU/L
- Na (72 h, time 3 day): 142 meq/L
- PL (72 h, time 3 day): 162.4 mg/dL
- RALB (72 h, time 3 day): 3.6 g/dL
- TBIL (72 h, time 3 day): 0.2 mg/dL
- TC (72 h, time 3 day): 97.8 mg/dL
- TG (72 h, time 3 day): 66.6 mg/dL
- TP (72 h, time 3 day): 5.7 g/dL
- gamma-GTP (72 h, time 3 day): 1 IU/L
- TERMINAL_BW ([…], time 7 day): 244.8 g
- TERMINAL_BW ([…], time 14 day): 289.8 g
- TERMINAL_BW ([…], time 28 day): 352.3 g
- APTT ([…], time 7 day): 16.9 s
- Bas ([…], time 7 day): 0%
- Eos ([…], time 7 day): 1%
- Fbg ([…], time 7 day): 221.4 mg/dL
- Hb ([…], time 7 day): 13.6 g/dL
- Ht ([…], time 7 day): 40.5%
- Lym ([…], time 7 day): 82.2%
- MCH ([…], time 7 day): 20.6 pg
- MCHC ([…], time 7 day): 33.7%
- MCV ([…], time 7 day): 61.2 fL
- Mono ([…], time 7 day): 2.6%
- Neu ([…], time 7 day): 13.8%
- PT ([…], time 7 day): 12.7 s
- Plat ([…], time 7 day): 126 x10_4/uL
- RBC ([…], time 7 day): 661.8 x10_4/ul
- Ret ([…], time 7 day): 4.8%
- WBC ([…], time 7 day): 115.5 x10_2/uL
- APTT ([…], time 14 day): 20.1 s
- Bas ([…], time 14 day): 0%
- Eos ([…], time 14 day): 1%
- Fbg ([…], time 14 day): 216.8 mg/dL
- Hb ([…], time 14 day): 14.2 g/dL
- Ht ([…], time 14 day): 41.8%
- Lym ([…], time 14 day): 82%
- MCH ([…], time 14 day): 20.7 pg
- MCHC ([…], time 14 day): 34.1%
- MCV ([…], time 14 day): 60.9 fL
- Mono ([…], time 14 day): 1.8%
- Neu ([…], time 14 day): 14.4%
- PT ([…], time 14 day): 12.6 s
- Plat ([…], time 14 day): 116.7 x10_4/uL
- RBC ([…], time 14 day): 687.8 x10_4/ul
- Ret ([…], time 14 day): 4%
- WBC ([…], time 14 day): 138.1 x10_2/uL
- APTT ([…], time 28 day): 19.2 s
- Bas ([…], time 28 day): 0%
- Eos ([…], time 28 day): 1%
- Fbg ([…], time 28 day): 225 mg/dL
- Hb ([…], time 28 day): 15 g/dL
- Ht ([…], time 28 day): 42.3%
- Lym ([…], time 28 day): 83.8%
- MCH ([…], time 28 day): 20.2 pg
- MCHC ([…], time 28 day): 35.6%
- MCV ([…], time 28 day): 56.9 fL
- Mono ([…], time 28 day): 2%
- Neu ([…], time 28 day): 12.2%
- PT ([…], time 28 day): 12.5 s
- Plat ([…], time 28 day): 107.9 x10_4/uL
- RBC ([…], time 28 day): 743.2 x10_4/ul
- Ret ([…], time 28 day): 2.1%
- WBC ([…], time 28 day): 114.3 x10_2/uL
- KIDNEY_L ([…], time 7 day): 1 g
- KIDNEY_R ([…], time 7 day): 1 g
- KIDNEY_TOTAL ([…], time 7 day): 2 g
- KIDNEY_L ([…], time 14 day): 1.2 g
- KIDNEY_R ([…], time 14 day): 1.1 g
- KIDNEY_TOTAL ([…], time 14 day): 2.3 g
- KIDNEY_L ([…], time 28 day): 1.3 g
- KIDNEY_R ([…], time 28 day): 1.3 g
- KIDNEY_TOTAL ([…], time 28 day): 2.5 g
- LIVER ([…], time 7 day): 12.8 g
- LIVER ([…], time 14 day): 14.8 g
- LIVER ([…], time 28 day): 16.8 g
- A/G ([…], time 7 day): 1.7
- ALP ([…], time 7 day): 753 IU/L
- ALT ([…], time 7 day): 36.4 IU/L
- AST ([…], time 7 day): 54.4 IU/L
- BUN ([…], time 7 day): 15.6 mg/dL
- CRE ([…], time 7 day): 0.4 mg/dL
- Ca ([…], time 7 day): 10.9 mg/dL
- Cl ([…], time 7 day): 103.8 meq/L
- DBIL ([…], time 7 day): 0.09 mg/dL
- GLC ([…], time 7 day): 215.2 mg/dL
- IP ([…], time 7 day): 6.8 mg/dL
- K ([…], time 7 day): 3.7 meq/L
- LDH ([…], time 7 day): 169.2 IU/L
- Na ([…], time 7 day): 140.6 meq/L
- PL ([…], time 7 day): 156.2 mg/dL
- RALB ([…], time 7 day): 3.7 g/dL
- TBIL ([…], time 7 day): 0.1 mg/dL
- TC ([…], time 7 day): 88.4 mg/dL
- TG ([…], time 7 day): 67 mg/dL
- TP ([…], time 7 day): 6 g/dL
- gamma-GTP ([…], time 7 day): 0.2 IU/L
- A/G ([…], time 14 day): 1.5
- ALP ([…], time 14 day): 685.8 IU/L
- ALT ([…], time 14 day): 33.2 IU/L
- AST ([…], time 14 day): 59.2 IU/L
- BUN ([…], time 14 day): 14.4 mg/dL
- CRE ([…], time 14 day): 0.5 mg/dL
- Ca ([…], time 14 day): 10.6 mg/dL
- Cl ([…], time 14 day): 103.8 meq/L
- DBIL ([…], time 14 day): 0.086 mg/dL
- GLC ([…], time 14 day): 192 mg/dL
- IP ([…], time 14 day): 6.2 mg/dL
- K ([…], time 14 day): 3.8 meq/L
- LDH ([…], time 14 day): 148 IU/L
- Na ([…], time 14 day): 141.8 meq/L
- PL ([…], time 14 day): 132 mg/dL
- RALB ([…], time 14 day): 3.5 g/dL
- TBIL ([…], time 14 day): 0.1 mg/dL
- TC ([…], time 14 day): 70.6 mg/dL
- TG ([…], time 14 day): 58.6 mg/dL
- TP ([…], time 14 day): 5.9 g/dL
- gamma-GTP ([…], time 14 day): 1 IU/L
- A/G ([…], time 28 day): 1.5
- ALP ([…], time 28 day): 449.8 IU/L
- ALT ([…], time 28 day): 30.6 IU/L
- AST ([…], time 28 day): 48.6 IU/L
- BUN ([…], time 28 day): 17.4 mg/dL
- CRE ([…], time 28 day): 0.5 mg/dL
- Ca ([…], time 28 day): 10.5 mg/dL
- Cl ([…], time 28 day): 103.8 meq/L
- DBIL ([…], time 28 day): 0.078 mg/dL
- GLC ([…], time 28 day): 227.2 mg/dL
- IP ([…], time 28 day): 6.9 mg/dL
- K ([…], time 28 day): 3.5 meq/L
- LDH ([…], time 28 day): 124.2 IU/L
- Na ([…], time 28 day): 141.8 meq/L
- PL ([…], time 28 day): 167.4 mg/dL
- RALB ([…], time 28 day): 3.8 g/dL
- TBIL ([…], time 28 day): 0.1 mg/dL
- TC ([…], time 28 day): 93.2 mg/dL
- TG ([…], time 28 day): 54.2 mg/dL
- TP ([…], time 28 day): 6.3 g/dL
- gamma-GTP ([…], time 28 day): 1.6 IU/L
